Experimental data reported in paper PMC8878452, “A Tale of Toxin Promiscuity: The Versatile Pharmacological Effects of Hcr 1b-2 Sea Anemone Peptide on Voltage-Gated Ion Channels” (Marine Drugs, 2022).
Entries after “also recorded” stand apart in the source; their conditions may differ. Bridges are numbered along the chain shown (N, C = ends). Where no end group is shown, it is not given here.

Key:
rKv1.2 = test: TEVC, Kv1.2 in Xenopus oocytes; assay type: cell-based, rat
Description: (§1) For the expression of Kv channels (rKv1.1, rKv1.2, rKv1.3, rKv1.4, rK1.5, rKv1.6, hKv2.1, hKv3.1, rKv4.2, hKv7.1, hKv7.2/7.3, hKv7.4, KQT1 (from the roundworm Caenorhabditis elegans), hKv10.1 (hEAG1), hKv11.1 (hERG1), and Shaker, from Drosophila melanogaster), Nav channels (rNav1.1, rNav1.2, rNav1.3, rNav1.4, hNav1.5, mNav1.6, hNav1.7, hNav1.8, and BgNav (from the cockroach Blattella germanica), as well as the hβ1 and rβ1 subunits, and Cav channels (rCav3.1, hCav3.2, and rCav3.3) in Xenopus oocytes, the linearized plasmids were transcribed using the T7 or SP6 mMESSAGEmMACHINE transcription kit (Ambion, Austin, TX, USA). Mature female animals were purchased from Nasco (Fort Atkinson, WI, USA) and were housed in the Aquatic Facility (KU Leuven) in compliance with the regulations of the European Union (EU) concerning the welfare of laboratory animals as declared in Directive 2010/63/EU. The use of X. laevis oocytes was approved by the Animal Ethics Committee of the KU Leuven, with the license number P186/2019.
(§2) Stage V–VI oocytes were collected from anesthetized female X. laevis frog as previously described, with the frogs anesthetized by placement in a 0.1% tricaine solution (amino benzoic acid ethyl ester; Merck, Kenilworth, NJ, USA). Oocyte microinjection was performed using a microinjector (Drummond Scientifc®, Broomall, PA, USA), with a programmed cRNA injection volume of 4–50 nL, depending on channel subtype. The oocytes were incubated in ND96 solution (96 mM NaCl; 2 mM KCl; 1.8 mM CaCl2; 2 mM MgCl2, and 5 mM HEPES, pH 7.4), supplemented with 50 mg/L of gentamicin sulfate.
(§3) Electrophysiological measurements were performed at room temperature (18–22 °C) using the two-electrode voltage-clamp (TEVC) technique. Data were obtained using a GeneClamp 500 amplifier (Axon Instruments®, Burlingame, CA, USA) and Clampex9 software (Axon Instruments®, USA) was responsible for data acquisition and storage. Glass micropipettes were produced using glass capillaries (borosilicate WPI 1B120-6) and drawn in a WPI (World Precision Instruments®, Sarasota, FL, USA) manual stretcher. The bath and perfusion solutions were either the previously described ND96 (Nav and Kv channels) or calcium-free ND96 supplemented with 10 mM BaCl2 (Cav channels).
(§4) Whole-cell currents of oocytes were recorded 1 to 3 days after RNA injection. The current and voltage electrodes were filled with 3 M KCl, and their resistance was adjusted from 1.0 to 2.5 MΩ. […] The current–voltage relationships were determined by 50 ms step depolarizations between −90 and +65 mV using 5 or 10 mV increments. All electrophysiological data were analyzed following the procedures described by Peigneur et al., 2012 [20].
(§5) All values were expressed as means ± SEM. […]

Kv1.5 = test: TEVC, Kv1.5 in Xenopus oocytes; assay type: cell-based, rat; conditions: 1 µM, n ≥ 3
Description: as §1, with “P186/2019. […]” for “P186/2019.”
as §4, with “injection.” for “injection. The current and voltage electrodes were filled with 3 M KCl, and their resistance was adjusted from 1.0 to 2.5 MΩ.”
as §5

rKv1.6 = test: TEVC, Kv1.6 in Xenopus oocytes; assay type: cell-based, rat; conditions: 1 µM, n ≥ 3
Description: as §1, with “P186/2019. […]” for “P186/2019.”
as §4, with “injection.” for “injection. The current and voltage electrodes were filled with 3 M KCl, and their resistance was adjusted from 1.0 to 2.5 MΩ.”
as §5

hKv3.1 = test: TEVC, Kv3.1 in Xenopus oocytes; assay type: cell-based, human; conditions: 1 µM, ND96 pH 7.4, 18–22 °C, n ≥ 3
Description: as §1, with “P186/2019. […]” for “P186/2019.”
as §4, with “injection.” for “injection. The current and voltage electrodes were filled with 3 M KCl, and their resistance was adjusted from 1.0 to 2.5 MΩ.”
as §5

hKv7.4 = test: TEVC, Kv7.4 in Xenopus oocytes; assay type: cell-based, human
Description: as §1, §2, §3, §4, §5

hKv10.1 (hEAG1) = test: TEVC, Kv10.1 in Xenopus oocytes; assay type: cell-based, human; conditions: 1 µM, ND96 pH 7.4, 18–22 °C, n ≥ 3
Description: as §1, with “P186/2019. […]” for “P186/2019.”
as §4, with “injection.” for “injection. The current and voltage electrodes were filled with 3 M KCl, and their resistance was adjusted from 1.0 to 2.5 MΩ.”
as §5

hKv11.1 (hERG1) = test: TEVC, hERG in Xenopus oocytes; assay type: cell-based, human
Description: as §1, §2, §3
(§6) Whole-cell currents of oocytes were recorded 1 to 3 days after RNA injection. The current and voltage electrodes were filled with 3 M KCl, and their resistance was adjusted from 1.0 to 2.5 MΩ. Currents were sampled at 20 kHz (Nav channels) and 10 kHz (Kv and Cav channels) and filtered using a four-pole Bessel low-pass Bessel filter at 1 kHz for sodium and […] for potassium and calcium, except for the hERG ion channel in which the currents were filtered at 1 kHz. Leak subtraction was performed using a P/4 protocol. Kv1.x currents were evoked by 500 ms depolarizations to 0 mV, followed by a 500 ms pulse to −50 mV from a holding potential of −90 mV. Kv2.1, Kv3.1, Kv4.2, Kv7.x, and KQT1 currents were elicited by 700 ms pulses to +20 mV from a holding potential of −90 mV. Current traces of the hERG1 channel were elicited by applying a +40 mV prepulse for 2 s, followed by a step of −120 mV for 2 s. […] The current–voltage relationships were determined by 50 ms step depolarizations between −90 and +65 mV using 5 or 10 mV increments. All electrophysiological data were analyzed following the procedures described by Peigneur et al., 2012 [20].
as §5

rNav1.4 = test: TEVC, Nav1.4 in Xenopus oocytes; assay type: cell-based, rat
Description: as §1, §2, §3, §6, §5

hNav1.7 = test: TEVC, Nav1.7 in Xenopus oocytes; assay type: cell-based, human
Description: as §1, §2, §3
Whole-cell currents of oocytes were recorded 1 to 3 days after RNA injection. The current and voltage electrodes were filled with 3 M KCl, and their resistance was adjusted from 1.0 to 2.5 MΩ. Currents were sampled at 20 kHz (Nav channels) and 10 kHz (Kv and Cav channels) and filtered using a four-pole Bessel low-pass Bessel filter at 1 kHz for sodium and […] for potassium and calcium, except for the hERG ion channel in which the currents were filtered at 1 kHz. Leak subtraction was performed using a P/4 protocol. Kv1.x currents were evoked by 500 ms depolarizations to 0 mV, followed by a 500 ms pulse to −50 mV from a holding potential of −90 mV. Kv2.1, Kv3.1, Kv4.2, Kv7.x, and KQT1 currents were elicited by 700 ms pulses to +20 mV from a holding potential of −90 mV. Current traces of the hERG1 channel were elicited by applying a +40 mV prepulse for 2 s, followed by a step of −120 mV for 2 s. Current traces of hEAG1 were elicited by a 2 s depolarization to 0 mV from a holding potential of −90 mV. Sodium current traces were evoked by a 100 ms depolarization to 0 mV. For Cav channels, current traces were elicited by 700 ms depolarizations to −20 mV from a holding potential of −90 mV. The current–voltage relationships were determined by 50 ms step depolarizations between −90 and +65 mV using 5 or 10 mV increments. All electrophysiological data were analyzed following the procedures described by Peigneur et al., 2012 [20].
All values were expressed as means ± SEM. Differences in ionic currents between the control and toxin conditions were compared by a one-way ANOVA, followed by Dunnett’s multiple comparisons test. Differences were considered statistically significant when […].

BgNav = test: TEVC, BgNav in Xenopus oocytes; assay type: cell-based, Blattella germanica
Description: as §1, §2, §3, §6, §5

rCav3.1 = test: TEVC, Cav3.1 in Xenopus oocytes; assay type: cell-based, rat
Description: as §1, §2, §3, §4, §5

[1] = test system: voltage-gated potassium (KV), sodium (NaV), and calcium (CaV) channels; test: TEVC screening panel of 28 voltage-gated ion channels; assay type: cell-based; conditions: 1 µM; 28 channels screened
Description: as §1, with “P186/2019. […]” for “P186/2019.”
as §4, with “injection.” for “injection. The current and voltage electrodes were filled with 3 M KCl, and their resistance was adjusted from 1.0 to 2.5 MΩ.”
as §5

[2] = 1 µM, TEVC, ND96 pH 7.4, 18–22 °C, n ≥ 3
[3] = 500 ms depolarization to 0 mV from −90 mV, mean ± SEM
[4] = 1 µM, 100 ms depolarization to 0 mV, mean ± SEM, n ≥ 3
[5] = 1 µM vs control (ND96 Ca2+ free)

Sequence: GTPCKCHGYIGVYWFMLAGCPNGYGYNLSCPYFLGICCVKK (disulfide 4-37, 6-30, 20-38 (inferred)) [Hcr 1b-2]
- gating-modifier effect (voltage-current relationship), Kv1.2 (rKv1.2; 1 µM): non-significant gating-modifier effect
- Shift in Vhalf activation, Kv1.2 (rKv1.2; 1 µM vs control (ND96)): −4.9 mV
- effect on potassium current, Kv1.2 (rKv1.2; [2]): activation
- Vhalf activation, Kv1.2 (rKv1.2; 1 µM, control (ND96) −24.7 ± 0.7, mean ± SEM): −29.6 ± 0.89 mV
- activity (inhibition of current), Kv1.5 (Kv1.5; [3]): 41.9 ± 4.7%
- effect on potassium current, Kv1.5 (Kv1.5; TEVC, ND96 pH 7.4, 18–22 °C): inhibition
- activity (inhibition of current), Kv1.6 (rKv1.6; [3]): 31.5 ± 6.7%
- effect on potassium current, Kv1.6 (rKv1.6; TEVC, ND96 pH 7.4, 18–22 °C): inhibition
- effect on potassium current, Kv3.1 (hKv3.1): not active
- gating-modifier effect (voltage-current relationship), Kv7.4 (hKv7.4; 1 µM): stronger shift
- Shift in Vhalf activation, Kv7.4 (hKv7.4; 1 µM vs control (ND96)): 7.1 mV
- effect on potassium current, Kv7.4 (hKv7.4; [2]): inhibition; also recorded: inhibits
- Vhalf activation, Kv7.4 (hKv7.4; 1 µM, control (ND96) 3.8 ± 0.3, mean ± SEM): 10.9 ± 0.3 mV
- effect on potassium current, Kv10.1 (hKv10.1 (hEAG1)): not active
- gating-modifier effect (voltage-current relationship), hERG (hKv11.1 (hERG1); 1 µM): stronger shift; also recorded: strong shift towards more positive potentials; also recorded: significantly shift the current-voltage relationship of hERG
- effect on potassium current, hERG (hKv11.1 (hERG1); 1 µM, TEVC, ND96 pH 7.4, 18–22 °C, n = 3): inhibition; also recorded: strong hERG modulator
- Vhalf activation, hERG (peak) (hKv11.1 (hERG1); 1 µM, peak current, control (ND96) −13.7 ± 0.5, mean ± SEM, n = 3): 12.6 ± 0.4 mV
- Vhalf activation, hERG (tail) (hKv11.1 (hERG1); 1 µM, tail current, control (ND96) −22.9 ± 0.6, mean ± SEM, n = 3): 0.6 ± 0.7 mV
- inhibition at 1 µM (hKv11.1 (hERG1); human, Xenopus laevis oocytes expressing hKv11.1 (hERG1), pH 7.4, +40 mV prepulse 2 s, then −120 mV 2 s, mean ± SEM, n = 3, read-out: activity (inhibition of current), hERG): 51.7 ± 7.6%
- Shift in Vhalf activation, Nav1.4 (rNav1.4; 1 µM vs control (ND96)): 5.5 mV
- Shift in Vhalf inactivation, Nav1.4 (rNav1.4; 1 µM vs control (ND96)): −1.7 mV
- reduction of peak amplitude (INa), Nav1.4 (rNav1.4; [4]): 29.1 ± 3.0%
- Vhalf activation, Nav1.4 (rNav1.4; 1 µM, control (ND96) −24.4 ± 0.1, mean ± SEM, n ≥ 3): −18.9 ± 0.1 mV
- Vhalf inactivation, Nav1.4 (rNav1.4; 1 µM, control (ND96) −48.5 ± 0.3, mean ± SEM, n ≥ 3): −50.2 ± 0.2 mV
- effect on activation or inactivation, Nav1.7 (hNav1.7; 1 µM): no significant effect
- Shift in Vhalf activation, Nav1.7 (hNav1.7; 1 µM vs control (ND96)): −2.8 mV
- Shift in Vhalf inactivation, Nav1.7 (hNav1.7; 1 µM vs control (ND96)): −0.5 mV
- reduction of peak amplitude (INa) / inhibition, Nav1.7 (hNav1.7; [4]): 38.7 ± 1.8%
- Vhalf activation, Nav1.7 (hNav1.7; 1 µM, control (ND96) −26.9 ± 0.1, mean ± SEM, n ≥ 3): −29.7 ± 0.1 mV
- Vhalf inactivation, Nav1.7 (hNav1.7; 1 µM, control (ND96) −38.1 ± 0.3, mean ± SEM, n ≥ 3): −38.6 ± 0.4 mV
- Shift in Vhalf activation, BgNav (BgNav; 1 µM vs control (ND96)): 1.9 mV
- Shift in Vhalf inactivation, BgNav (BgNav; 1 µM vs control (ND96)): −5.0 mV
- reduction of peak amplitude (INa) / inhibition, BgNav (BgNav; [4]): 17.7 ± 1.2%
- Vhalf activation, BgNav (BgNav; 1 µM, control (ND96) −29.0 ± 0.1, mean ± SEM, n ≥ 3): −27.1 ± 0.1 mV
- Vhalf inactivation, BgNav (BgNav; 1 µM, control (ND96) −47.9 ± 0.3, mean ± SEM, n ≥ 3): −52.9 ± 0.3 mV
- Shift in Vhalf activation, Cav3.1 (rCav3.1; [5]): −0.2 mV
- Shift in Vhalf inactivation, Cav3.1 (rCav3.1; [5]): −2.3 mV
- Vhalf activation, Cav3.1 (rCav3.1; 1 µM, control (ND96 Ca2+ free) −41.0 ± 0.1, mean ± SEM, n ≥ 3): −41.2 ± 0.1 mV
- Vhalf inactivation, Cav3.1 (rCav3.1; 1 µM, control (ND96 Ca2+ free) −58.4 ± 0.2, mean ± SEM, n ≥ 3): −60.7 ± 0.2 mV
- number of targets acted on, of 28 screened ion channels [1]: 26 targets
